From patent US6552006B2, “Immunomodulatory polynucleotides in treatment of an infection by an intracellular pathogen” (The Regents of the University of California, priority 2000, dated 2003)

What was measured:
[1] = tested on: M. avium; test: Intracellular growth of M. avium in human monocyte-derived macrophages (hMDM) in vitro, CFU assay; assay type: cell-based, Mycobacterium avium; conditions: for enhancement of the anti-mycobacterial effect of clarithromycin: compared to antibiotic alone
Method: A previously studied M. avium strain 13 (Hayashi, et al. (1999) Infect. Immun. 67:3558-3565; Meylan, et al. (1990) Infect. Immun. 58:2564-2568), isolated from an AIDS patient at UCSD, San Diego, Calif., was used in all experiments. The organism was cultured on Middlebrook 7H11 agar (Difco Laboratories, Detroit, Mich.) with OADC enrichment at 37° C. in the presence of 5% CO2 for two weeks. Transparent colonies were selectively picked and further cultured on Middlebrook 7H11 plates for two more weeks. The resulting colonies, which were predominantly transparent (>90%), were then collected and washed two times with phosphate-buffered saline (PBS). The bacteria were finally resuspended in Middlebrook 7H9 broth (Difco Laboratories) and the OD600 of the suspension was adjusted to 0.15-0.2. The suspension was aliquoted and stored at −70° C. until use. The number of organisms/ml of this suspension was determined by the colony forming unit (CFU) assay.
The number of CFU in a given sample was determined by colony counting as described previously (Ogata, et al. (1992) Infect. Immun. 60:4720-4725). Serial 10-fold dilutions of total cell lysates or tissue homogenates were performed in PBS. 10 μl of each dilution were plated on Middlebrook 7H11 plates supplemented with OADC enrichment. The plates were incubated up to 14 days at 37° C. The number of colonies was counted every alternate day from day 10 onwards until no new colonies appeared. This yielded the number of CFU/10 μl. The number of CFU in each well was then calculated.
Monocytes were isolated from normal human buffy coats obtained from the San Diego Blood Bank by Ficoll-Hypaque and Percoll gradient centrifugation (Hayashi, et al. (1997) Infect. Immun. 65:5262-5271). Purity of the monocytes by this method was greater than 70%. The monocytes thus isolated were cultured for five to seven days in Iscove's Modified Dulbecco's Medium (BioWhittaker, Walkersville, Md.) supplemented with 10% normal human serum (Irvine Scientific, Santa Ana, Calif.), 2 mM L-glutamine and 50 units/ml penicillin-streptomycin in Teflon beakers to yield human monocyte-derived macrophages (hMDM). These hMDM were further enriched by adherence to the wells of tissue culture plates before use in experiments. Purity of hMDM after the second adherence assessed by esterase staining was >95%. Viability determined by trypan blue exclusion was >97%.
hMDM (6×10^4) were, adhered to the wells of 96-well tissue culture plates for two hours and non-adherent cells were removed by washing with warm RPMI-1640. Adherent cells were treated with ISS at 3, 10, or 30 μg/ml for 72 h before infection with M. avium. Cells treated with M-ODN at 10 μg/ml or with media alone served as controls. After 72 h, the cells were washed two times and infected with M. avium in RPMI-1640 supplemented with 5% heat-inactivated fetal bovine serum (FBS, Irvine Scientific) at a cell:bacteria ratio of 1:5-1:10. On days 1, 3 and 7 after infection, the total number of colony forming units (CFU) in each well was determined. The supernatant was collected and set aside and the adherent cells were lysed. To account for all the mycobacteria in each well, corresponding lysates and supernatants were combined and used to determine the number of CFU. Experiments were done in triplicate and results were expressed as mean±SD of CFU per well.
Alternatively, 5×10^4 mBMDM or hMDM was treated with ISS for 3 days before infection. Macrophages treated with M-ODN or with media alone served as controls. After 3 days, the cells were infected for 2 hrs with M. avium at a macrophage:bacteria ratio of 2:1 for mBMDM or of 1:10 for hMDM, and subsequently cultured in fresh media without antibiotics. To examine attachment and/or invasion of M. avium, the macrophages were lysed immediately after washing, and the number of bacteria were enumerated by the CFU assay. Intracellular growth of M. avium was determined on days 1, 3, and 7 after infection. […]

[2] = tested on: IFN-γ; test: Serum IFN-γ by ELISA in mice; assay type: in vivo
Method: Serum obtained from M. avium-infected mice that received ISS or PBS was assayed for IFN-γ and IL-12 by ELISA using mouse IFN-γ and IL-12 (p70) ELISA kits (Endogen, Inc. Woburn, […]), respectively, and following the manufacturer's instructions.

[3] = tested on: M. avium; test: Growth of M. avium in vivo in C57B1/6 mice, CFU per organ; parameters: species or system Mycobacterium avium; conditions: for viable bacteria in the lungs: week 2
[4] = tested on: M. avium; test: Attachment and/or invasion of M. avium into mBMDM, CFU immediately after infection; assay type: cell-based, Mycobacterium avium; conditions: vs cells treated with M-ODN or medium alone
Method: Alternatively, 5×10^4 mBMDM or hMDM was treated with ISS for 3 days before infection. Macrophages treated with M-ODN or with media alone served as controls. After 3 days, the cells were infected for 2 hrs with M. avium at a macrophage:bacteria ratio of 2:1 for mBMDM or of 1:10 for hMDM, and subsequently cultured in fresh media without antibiotics. To examine attachment and/or invasion of M. avium, the macrophages were lysed immediately after washing, and the number of bacteria were enumerated by the CFU assay. Intracellular growth of M. avium was determined on days 1, 3, and 7 after infection. To account for all the mycobacteria in each group, corresponding lysates were combined and then the number of CFU was determined. To examine the efficacy of anti-mycobacterial treatments, CFU recovered from cells treated with medium alone were considered as 100% growth.
ISS activate macrophages and induce the expression of surface adhesion molecules such as ICAM-1 (Martin-Orozco, et al. (1999) Int. Immun. 11:1111-1118). These molecules may affect the attachment of M. avium or its invasion into mouse bone marrow-derived macrophages (mBMDM). […]

[5] = other experiments, data not shown
[6] = ISS 3 days before i.v. infection, 10^7 organisms/mouse, four weeks after infection, vs M-ODN and PBS mice

What does the source list for “5′-TGACTGTGAACGTTCGAGATGA-3′ (SEQ ID NO:1) [ISS]”?
decrease of intracellular growth of M. avium ([1]; established infection, infected hMDM treated with ISS 10 μg/ml for 7 days): 53%; inhibition of intracellular growth of M. avium ([1]; hMDM (5×10^4/well) treated 3 days before infection, 7 days post-infection (FIG. 4A)): 91%; inhibition of intracellular growth of M. avium ([1]; hMDM pretreated 72 h with 3 μg/ml ISS before infection, day 7, vs medium alone or M-ODN): 91.3±1.7%; growth inhibition at the higher concentrations of ISS tested ([1]; hMDM pretreated with 10 or 30 μg/ml vs 3 μg/ml ISS): no further increase in growth inhibition; inhibition of growth of M. avium ([1]; hMDM, ISS (10 µg/mL) immediately after infection (0 day), CFU at day 7, vs medium alone): 53±18%; inhibition of growth of M. avium ([1]; hMDM, ISS (10 µg/mL) one day after infection (+1 day), CFU at day 7, vs medium alone): 36±16%; inhibition of intracellular growth of M. avium ([1]; hMDM, ISS (10 µg/mL) pretreatment three days before infection (−3 days), CFU at day 7, vs medium alone): 51±4%; inhibition of intracellular growth of M. avium ([1]; infected hMDM, ISS 10 μg/ml alone, day 7): 38±7%; enhancement of the anti-mycobacterial effect of clarithromycin ([1]; infected hMDM, ISS 10 μg/ml with 1 μg/ml clarithromycin, day 7): 89±5%; enhancement of the anti-mycobacterial effect of clarithromycin ([1]; infected hMDM, ISS 10 μg/ml with 4 μg/ml clarithromycin, day 7): 63±12%; serum IFN-γ levels ([2]; M. avium-infected mice (10^6 organisms/mouse), 2, 4, 6 weeks, ISS-pretreated vs PBS-pretreated): no significant differences; time for serum IFN-γ to attain basal levels post injection [2, 5]: ≤ 3 weeks; time of peak serum level of IFN-γ after administration [2, 5]: 1 days; growth of M. avium in the therapeutic model ([3]; C57B1/6 mice, 10^7 CFU i.v., ISS-ODN 50 μg/mouse alone one week after infection, 5 weeks after infection): did not inhibit the growth of M. avium; viable bacteria in the lungs ([3]; ISS 100 μg/mouse i.d. 3 days before infection, 10^6 organisms/mouse, vs PBS): significantly lower number of viable bacteria; difference of CFU in the lungs, controls vs ISS-treated mice [3, 6]: 1 log; difference of CFU in the spleen, controls vs ISS-treated mice [3, 6]: 2 logs; number of bacteria in the spleen ([3]; ISS i.d. 3 days before infection, 10^6 organisms/mouse, vs PBS, effects maximal at 4 weeks): almost two logs lower number of bacteria; CFU in the spleen ([3]; ISS pretreatment, 10^6 organisms/mouse, week 6, vs PBS): equaled that observed in the control mice; bacterial load in the lungs ([3]; ISS pretreatment, 10^6 organisms/mouse, week 6, vs control mice): exceeded that found in the lungs of control mice; bacterial loads in the liver ([3]; ISS pretreatment, 10^6 organisms/mouse, weeks 2, 4, 6, vs PBS): no significant difference; bacteria in the spleen ([3]; ISS prior to infection, 10^7 organisms/mouse, 4 weeks, vs PBS): nearly two logs less bacteria; splenic CFU counts ([3]; ISS prior to infection, 10^7 organisms/mouse, 6 weeks, vs control): similar; viable bacteria in the lungs ([3]; ISS prior to infection, 10^7 organisms/mouse, vs PBS): significantly lower number of viable bacteria; mycobacterial loads in the liver ([3]; ISS prior to infection, 10^7 organisms/mouse, weeks 2, 4, 6, vs PBS): no significant difference; persistence of the protective effect after administration ([3]; single injection of ISS, 10^6 organisms/mouse): up to four weeks; CFU recovered immediately from cells treated before infection (attachment/invasion) [4]: not significantly different
